# Laboratory results from US6197774A, “Pyrimidine derivative” (Otsuka Pharmaceutical Co., Ltd., priority 1997, dated 2001).
# How the values were obtained:
# [1] = test system: formation of TNF-α in cell strain RAW 264.7; assay: Activity for inhibiting the formation of TNF-α in vitro (RAW 264.7 cells, ELISA); format: cell-based; conditions: Mus musculus, RAW264.7, control 100, LPS 100 ng/ml, 24 hours, read-out: Ratio of formed amount of TNF-α
# Method: [Evaluation test of activity for inhibiting the formation of TNF-α in vitro]
# (§1) Pyrimidine derivative obtained in Example 1 was used as test compound.
# Cell strain RAW 264.7 (ATCC) derived from the macrophage of mouse was placed on each one of the wells on a microplate having 24-wells so as to put the cells in an amount of 3×10^5 cells/U (well). The cells were incubated for 24 hours in a phenol red free-RPMI-1640 culture medium (mfd. by GIBCO) to which 10% of equine serum (mfd. by Bio Whittaker), 100 U/ml of penicillin (mfd. by Dainippon Pharmaceutical Co., Ltd.) and 100 μg/ml of streptomycin (mfd. by Dainippon Pharmaceutical Co., Ltd.) were added.
# Next, the equine serum was removed from the culture medium, and the reference culture medium as control was prepared by adding 2 mM of L-arginine (mfd. by Wako Pure Chemical Industries, Ltd.), 10 μM/ml of tetrahydrobiopterin (mfd. by ALEXIS) and 100 ng/ml of lipopolysaccharide (LPS)(mfd. by Sigma Chemical Co.) to a phenol red free-RPMI-1640 culture medium, so as to induce the formation of TNF-α.
# On the other hand, the test culture medium, containing the test compound of Example 1 was prepared similarly as in the reference culture medium, except adding the test compound (1×10^-4, 1×10^-5 and 1×10^-6 M) dissolved in dimethyl sulfoxide (DMSO) at the same time of LPS-addition.
# The concentration of TNF-α formed in the supernatant of each one of the culture media after 24 hour-incubation was measured by Factor-Test-X Mouse TNF-α ELISA Kit (mfd. by genzyme).
# 5-lipoxygenase = target: T1, 5-lipoxygenase (Rattus norvegicus, UniProt P12527); assay: Activity for inhibiting 5-lipoxygenase in vitro (crude enzyme from rat basophilic leukemia-1 cells, 5-HETE RIA); format: biochemical; conditions: 8 minutes at 25° C.
# T1 construct: Thus obtained supernatant was collected and concentrated so as to obtain crude enzyme containing 5-lipoxygenase; host or cells: rat basophilic leukemia-1 cells
# T1 sequence (P12527 1-673): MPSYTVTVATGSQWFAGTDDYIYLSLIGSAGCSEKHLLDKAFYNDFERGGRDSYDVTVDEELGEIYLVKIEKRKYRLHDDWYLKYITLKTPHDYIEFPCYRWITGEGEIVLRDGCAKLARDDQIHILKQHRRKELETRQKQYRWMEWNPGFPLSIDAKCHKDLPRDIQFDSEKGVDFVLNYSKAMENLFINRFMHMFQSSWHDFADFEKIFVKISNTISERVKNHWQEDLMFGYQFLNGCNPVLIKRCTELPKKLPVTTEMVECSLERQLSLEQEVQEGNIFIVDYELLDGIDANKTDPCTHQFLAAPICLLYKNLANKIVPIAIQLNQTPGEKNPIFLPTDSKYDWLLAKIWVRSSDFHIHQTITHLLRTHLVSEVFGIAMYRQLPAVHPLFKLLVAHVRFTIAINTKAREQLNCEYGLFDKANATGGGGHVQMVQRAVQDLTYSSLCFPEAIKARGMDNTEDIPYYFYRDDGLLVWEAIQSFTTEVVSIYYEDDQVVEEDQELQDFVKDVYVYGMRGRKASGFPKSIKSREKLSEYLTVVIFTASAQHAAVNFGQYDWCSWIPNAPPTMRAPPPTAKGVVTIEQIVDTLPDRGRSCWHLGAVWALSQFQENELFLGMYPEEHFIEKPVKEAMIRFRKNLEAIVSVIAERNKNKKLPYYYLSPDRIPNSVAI
# Method: [Evaluation test of activity for inhibiting 5-lipoxygenase in vitro]
# as §1
# Test was referred to the methods as described in Proc. Natl. Acad. Sci. U.S.A., Vol. 81, pp. 689-693 (1984) and J. Biol. Chem., Vol. 260, pp. 11554--11559 (1985).
# (1) Preparation of Crude Enzyme Containing 5-lipoxygenase
# RBI-1 cells (rat basophilic leukemia-1, ATCC, 1×10^8 cells) in 5 ml of buffer solution (50 mM Tris/1 mM EDTA, pH 7.4) were lysed with nitrogen cavitation bomb (mfd. by PARR Instrument Company) under 750 psi for 20 min at 4° C. The solution were centrifuged with twice volume of 50 mM Tris/1 mM EDTA (pH 7.4) at 5000 rpm for 10 minutes at 4° C. The supernatant of the solution was taken and further centrifuged at 37,500 rpm for 90 minutes at 4° C. Thus obtained supernatant was collected and concentrated so as to obtain crude enzyme containing 5-lipoxygenase. Its protein concentration was determined with Protein assey kit (mfd. by Pierce).
# (2) Evaluation of Activity for Inhibiting 5-lipoxygenase (RIA assay)
# 12.5 μl of Crude enzyme, 61.5 μl of 50 mM Tris-HCl (mfd. by Sigma Chemical Co.), 12.5 μl of 0.5 mM ATP (mfd. by Sigma Chemical Co.), and 12.5 μl of cofacter solution (50 mM Tris-HCl (pH 7.2, at 25° C.) containing 10 mM glutahion, 14 mM of indomethacin and 500 mM of CaCl2.2H2 O) were preincubated for […] at 25° C. for reference solution as control. On the other hand, the test solution containing the test compound of Example 1 was prepared similarly as in the reference solution, except adding 1 μl of the test compound (1×10^-4, 1×10^-5, and 1×10^-6 M).
# 25 μl of 0.07 mM Arachidonic acid (mfd. by Sigma Chemical Co.) was added each of the reference solution and test solutin to intiate the reaction, and incubated it for 8 minutes at 25° C. The reaction was terminated by adding 40 μl of citric acid (mfd. by Sigma Chemical Co.). […]
# RIA assay was conducted by the 5-HETE [^3 H] […] RIA assay to determine the amount of 5-lipoxygenase by counting radioactivity on the liquid scintillation counter (mfd. by Beckman Co.). […]
smiles,measurement,setting,value
"COCc1cc(=O)n2ncc(-c3ccc(Sc4ccccc4)cc3)c2[nH]1 [Example 1, 4,7-dihydro-5-methoxymethyl-7-oxo-3-(4-phenylthiophenyl)pyrazolo[1,5-a]pyrimidine]",activity at 100 µM,[1]; 1 × 10^-4 M,5.1%
same,activity at 10 µM,[1]; 1 × 10^-5 M,59.9%
same,activity at 1 µM,[1]; 1 × 10^-6 M,120%
same,inhibition at 100 µM,5-lipoxygenase; 1 × 10^-4 M,24.3%
same,inhibition at 10 µM,5-lipoxygenase; 1 × 10^-5 M,38.8%
same,inhibition at 1 µM,5-lipoxygenase; 1 × 10^-6 M,68%
